This experiment deals with T1, gamma secretase (Homo sapiens, UniProt P49768).
T1 construct: HEK293 cells stably expressing full length Amyloid Precursor Protein (APP); endogenous in cells; host or cells: HEK 293 cells stably expressing full length APP
Description: GSM cell-based assay: Aβ 42 inhibition or reduction in HEK 293 cells over-expressing APP (sandwich ELISA). The conditions noted are these: approximate IC50; HEK293 cells stably expressing full length APP, 24 hours incubation, 10-point dose response starting at 10 μM. From the text:
GSM cell-based assays were designed to measure the modulation of Aβ 42 from HEK 293 cells over-expressing APP.
Three simultaneous cell-based assays, namely Aβ 42 inhibition or reduction, Aβ 40 inhibition or reduction and a measurement of cell viability of the cells from which the Aβ 42/40 readout was obtained, together gave an interpretation of gamma secretase modulation (GSM). The assays measure Aβ 42 and Ab 40 from conditioned medium of test compound treated HEK 293 cells.
HEK293 cells stably expressing full length Amyloid Precursor Protein (APP) were plated at a density of 100K cells/well in 96 well plates (Costar). The cells were cultivated for 6 hours at 37° C. and 5% CO2 in DMEM supplemented with 10% FBS. The test compounds were then added to cells in 10-point dose response concentrations with the starting concentration being 10 μM. The compounds were diluted from stock solutions in DMSO and the final DMSO concentration of the test compounds on cells was 0.1%. After 24 hours of incubation with the test compounds the supernatant conditioned media was collected and the Aβ 42, Aβ 40 levels were determined using a sandwich ELISA. A cell viability test (CellTiter-Blue Cell Viability assay, Promega) on the cells from which the conditioned medium was harvested for Aβ 42 or Aβ 40 readouts gave an indication of cell survivability as a possible reason for false positive Aβ 42 or 40 reduction or inhibition readout. The IC50 of the compound (for either Aβ 42 or Aβ 40) was calculated from the percent of control or percent inhibition of Aβ 42 or Aβ 40 as a function of the concentration of the test compound.
The sandwich ELISA to detect Aβ 42 or Aβ 40 was performed in 96 well microtiter plates, which were pre-treated with goat anti-rabbit IgG (Pierce). The capture and detecting antibody pair that were used to detect Aβ 42 and Aβ 40 from cell supernatants were rabbit monoclonal Antibody 42 (RabMAb 42) and affinity purified polyclonal Antibody 40 pAB40 (Biosource) as capture antibodies and biotinylated 6E10 (Signet Labs Inc.) as detection antibody. The optimal concentration for RabMAb 42 was 1 μg/ml in Superblock/TBS (Pierce) that was supplemented with 0.05% Tween 20 (Sigma). The optimal concentration for the pAb40 antibody was 3 μg/ml in Superblock/TBS (Pierce) that was supplemented with 0.05% Tween 20 (Sigma). Optimal concentration for the detection antibody 6E10-biotinylated was 0.5 μg/ml in Superblock/TBS (Pierce) that had been supplemented with 2% normal goat serum and 2% normal mouse serum.
Cellular supernatants were incubated with the capture antibody for 16-20 hours at 4° C., followed by 3 wash steps in TBS-tween (0.05%). The detecting antibody incubation was for 3 hours at 4° C., again followed by the wash steps as described previously. The final readout of the ELISA is Time-Resolved Fluorescence (counts per minute) using Delfia reagents Streptavidin-Europium and Enhancement solutions (Perkin Elmer) and the EnVision Multilabel plate reader (Perkin Elmer).
(In general: An ELISA detects its analyte on a solid surface through an enzyme-linked reagent.)
As to `Cc1cc(-c2ccc(NC(=O)c3cc4ccc(F)cc4s3)cc2)ccn1` [Cpd 314], the IC50 (as a rule, the midpoint of a concentration-inhibition curve) was > 10000 nM.

`CCN(Cc1cc(OC)c(OC)c(OC)c1)c1ccc(C(C)C(=O)Nc2ccc(-c3ccnc(C)c3)cc2)cc1` (centres unmarked) [Cpd 526, 2-(4-(ethyl(3,4,5-trimethoxybenzyl)amino)-phenyl)-N-(4-(2-methyl-4-pyridinyl)-phenyl)propanamide]: the IC50 turned out to be 310 nM.

Turning to `COCCNc1cccc(C(CC(C)C)C(=O)Nc2ccc(-c3ccnc(C)c3)cc2)n1` (centres unmarked) [Cpd 182, 2-(6-((2-methoxyethyl)amino)-2-pyridinyl)-4-methyl-N-(4-(2-methyl-4-pyridinyl)-phenyl)pentanamide], the IC50 is > 10000 nM.

In the case of `Cc1cc(-c2ccc(NC(=O)C(C)c3cccc(C4CCN(CCO)CC4)c3)cc2)ccn1` (centres unmarked) [Cpd 140], the IC50 was > 10000 nM.

Regarding `Cc1cc(-c2ccc(NC(=O)Cc3cncc(Br)c3)cc2)ccn1` [Cpd 27, 2-(5-bromo-3-pyridinyl)-N-(4-(2-methyl-4-pyridinyl)phenyl)acetamide], the IC50 amounted to 2450 nM.

The molecule `Cc1cc(-c2ccc(NC(=O)Cc3ccc4c(c3)CCO4)cc2)ccn1` [Cpd 116, 2-(2,3-dihydro-1-benzofuran-5-yl)-N-(4-(2-methyl-4-pyridinyl)phenyl)acetamide] yielded a 50% inhibitory concentration (IC50) of 4140 nM.

The molecule `Cc1cc(-c2ccc(NC(=O)Cc3cccc4ccccc34)cc2)ccn1` [Cpd 15, N-(4-(2-methyl-4-pyridinyl)phenyl)-2-(1-naphthalenyl)acetamide] showed an IC50 of 883 nM.

On to `Cc1cc(-c2ccc(NC(=O)c3cccc(N(C)C)c3)cc2)ccn1` [Cpd 46], for which the IC50 is > 10000 nM.

For the molecule `Cc1cc(C(C)C(=O)Nc2ccc(-c3ccnc(C)c3)cc2)cc(N2CCC(F)(F)CC2)c1` (centres unmarked) [Cpd 637, 2-(3-(4,4-difluoro-1-piperidinyl)-5-methyl-phenyl)-N-(4-(2-methyl-4-pyridinyl)-phenyl)propanamide], the IC50 is > 10000 nM.

In turn, `Cc1cc(-c2ccc(NC(=O)C3CCCc4ccccc43)cc2)ccn1` (centres unmarked) [Cpd 322] showed an IC50 of 2690 nM.

Regarding `Cc1cc(-c2ccc(NC(=O)c3ccc(CN4CCOCC4)cc3)cc2)ccn1` [Cpd 625], the IC50 was > 3330 nM.

In the case of `Cc1cc(-c2ccc(NC(=O)Cc3cccc(C#N)c3)cc2)ccn1` [Cpd 321, 2-(3-cyanophenyl)-N-(4-(2-methyl-4-pyridinyl)phenyl)acetamide], the IC50 was > 10000 nM.

As for `COc1cc(C(C)C(=O)Nc2ccc(-c3ccnc(C)c3)cc2)ccc1N` (centres unmarked) [Cpd 574, 2-(4-amino-3-methoxyphenyl)-N-(4-(2-methyl-4-pyridinyl)phenyl)propanamide], the IC50 was > 10000 nM.

With `Cc1cc(-c2ccc(NC(=O)C3CC(=O)N(c4ccccc4)C3)cc2)ccn1` (centres unmarked) [Cpd 53], the IC50 is > 10000 nM.

`CC(=O)c1ccc(-c2cccc(C(C)C(=O)Nc3ccc(-c4ccnc(C)c4)cc3)c2)cc1` (centres unmarked) [Cpd 158, 2-(4′-acetyl-3-biphenylyl)-N-(4-(2-methyl-4-pyridinyl)phenyl)propanamide] registered a half-inhibitory concentration (IC50) of 139 nM.

The molecule `Cc1cc(-c2ccc(NC(=O)C3CC3(F)F)cc2)ccn1` (centres unmarked) [Cpd 185] yielded an IC50 of 910 nM.

As to `Cc1cc(-c2ccc(NC(=O)[C@H](CC(C)C)c3ccc(-c4ccc(N5CCOCC5)cc4)cc3)cc2)ccn1` [Cpd 131, (2R)-4-methyl-N-(4-(2-methyl-4-pyridinyl)-phenyl)-2-(4′-(4-morpholinyl)-4-biphenylyl)pentanamide], the IC50 stood at 191 nM.

Regarding `Cc1cc(-c2ccc(NC(=O)C(C)c3ccc(N(CC4CC4)CC4CC4)cc3)cc2)ccn1` (centres unmarked) [Cpd 172], the IC50 was 540 nM.

Molecule `Cc1cc(-c2ccc(NC(=O)C3CC3(C)C)cc2)ccn1` (centres unmarked) [Cpd 184] returned an IC50 of 1090 nM.

As to `COc1ncc(-c2cccc([C@@H](C)C(=O)Nc3ccc(-c4ccnc(C)c4)cc3)c2)cn1` [Cpd 502, (2R)-2-(3-(2-methoxy-5-pyrimidinyl)-phenyl)-N-(4-(2-methyl-4-pyridinyl)-phenyl)propanamide], the IC50 was > 10000 nM.

Take `Cc1cc(-c2ccc(NC(=O)c3cc(Cl)cc(Cl)c3)c(F)c2)ccn1` [Cpd 86]: the IC50 is > 10000 nM.

`Cc1cc(-c2ccc(NC(=O)C(C)n3ccc4ccccc43)cc2)ccn1` (centres unmarked) [Cpd 414, 2-(1H-indol-1-yl)-N-(4-(2-methyl-4-pyridinyl)phenyl)propanamide] came in with an IC50 of 1020 nM.

Regarding `Cc1cc(-c2ccc(NC(=O)C3CC(=O)N(C4CCCCC4)C3)cc2)ccn1` (centres unmarked) [Cpd 60], the IC50 is > 10000 nM.

Take `Cc1cc(-c2ccc(NC(=O)[C@H]3CCCN3C(=O)OC(C)(C)C)cc2)ccn1` [Cpd 168]: the IC50 is > 10000 nM.

`Cc1cc(-c2ccc(NC(=O)c3cc4ccccc4n3C)cc2)ccn1` [Cpd 305]: the IC50 came to 5540 nM.

Regarding `Cc1cc(-c2ccc(NC(=O)C3(c4ccccc4F)CC3)cc2)ccn1` [Cpd 288], the IC50 was 1770 nM.

As for `Cc1cc(-c2ccc(NC(=O)C(C)(C)c3ccc(Cl)cc3)cc2)ccn1` [Cpd 48, 2-(4-chlorophenyl)-2-methyl-N-(4-(2-methyl-4-pyridinyl)phenyl)propanamide], the IC50 is > 10000 nM.

Take `Cc1cc(-c2ccc(NC(=O)Cc3c(C)noc3C)cc2)ccn1` [Cpd 89, 2-(3,5-dimethyl-4-isoxazolyl)-N-(4-(2-methyl-4-pyridinyl)phenyl)acetamide]: the IC50 is > 10000 nM.

For `Cc1cc(-c2ccc(NC(=O)C(C)c3ccc(N4CCCCC4)nc3)cc2)ccn1` (centres unmarked) [Cpd 580, N-(4-(2-methyl-4-pyridinyl)phenyl)-2-(6-(1-piperidinyl)-3-pyridinyl)propanamide], the IC50 stood at 616 nM.

With `Cc1cc(-c2ccc(NC(=O)Cc3ccc4oc(-c5cccnc5)nc4c3)cc2)ccn1` [Cpd 583, N-(4-(2-methyl-4-pyridinyl)phenyl)-2-(2-(3-pyridinyl)-1,3-benzoxazol-5-yl)-acetamide], the IC50 came to 4610 nM.

In turn, `Cc1cc(-c2ccc(NC(=O)C(C)n3cc(-c4ccccc4)c(C)n3)cc2)ccn1` (centres unmarked) [Cpd 455, 2-(3-methyl-4-phenyl-1H-pyrazol-1-yl)-N-(4-(2-methyl-4-pyridinyl)phenyl)-propanamide] returned an IC50 of 908 nM.

The molecule `Cc1cc(-c2ccc(NC(=O)[C@H](C)c3ccc4c(c3)[nH]c3ccc(Cl)cc34)cc2)ccn1` [Cpd 122, (2R)-2-(6-chloro-9H-carbazol-2-yl)-N-(4-(2-methyl-4-pyridinyl)phenyl)propanamide] gave an IC50 of 328 nM.

`COc1ccc(Cl)cc1C(=O)Nc1ccc(-c2ccnc(C)c2)cc1` [Cpd 10] gave an IC50 of 1380 nM.

In turn, `Cc1cc(-c2ccc(NC(=O)Cc3ccc4oc(-c5ccccc5)nc4c3)cc2)ccn1` [Cpd 125, N-(4-(2-methyl-4-pyridinyl)phenyl)-2-(2-phenyl-1,3-benzoxazol-5-yl)acetamide] returned an IC50 of 272 nM.

Molecule `COc1cccc(C(=O)Nc2ccc(-c3ccnc(C)c3)cc2)c1` [Cpd 34] displayed an IC50 of 2930 nM.

In the case of `Cc1cc(-c2ccc(NC(=O)Cc3ccc4c(c3)OCO4)cc2)ccn1` [Cpd 16, 2-(1,3-benzodioxol-5-yl)-N-(4-(2-methyl-4-pyridinyl)phenyl)acetamide], the IC50 was found to be 473 nM.

For the molecule `Cc1cc(-c2ccc(NC(=O)Cc3ccccc3OCc3ccccc3)cc2)ccn1` [Cpd 113, 2-(2-(benzyloxy)phenyl)-N-(4-(2-methyl-4-pyridinyl)phenyl)acetamide], the IC50 was > 10000 nM.

With `Cc1cc(-c2ccc(NC(=O)c3cc(C4CC4)on3)cc2)ccn1` [Cpd 22], the IC50 is 1580 nM.

On to `Cc1cc(-c2ccc(NC(=O)C(C)c3cc(N4CCOCC4)cc(C(F)(F)F)c3)cc2)ccn1` (centres unmarked) [Cpd 441, N-(4-(2-methyl-4-pyridinyl)phenyl)-2-(3-(4-morpholinyl)-5-(trifluoromethyl)phenyl)-propanamide], for which the IC50 was 1840 nM.

Consider `Cc1cc(-c2ccc(NC(=O)C(C)c3ccc4c(c3)CCN4)cc2)ccn1` (centres unmarked) [Cpd 497, 2-(2,3-dihydro-1H-indol-5-yl)-N-(4-(2-methyl-4-pyridinyl)phenyl)propanamide], for which the IC50 was > 10000 nM.

On to `Cc1cc(-c2ccc(NC(=O)Cc3ccc(F)c(C(F)(F)F)c3)cc2)ccn1` [Cpd 351, 2-(4-fluoro-3-(trifluoromethyl)phenyl)-N-(4-(2-methyl-4-pyridinyl)phenyl)acetamide], for which the IC50 stood at 2390 nM.

The values are drawn from US20110166132A1, “Gamma Secretase Modulators” (Amgen Inc., priority 2007, published 2011).
